This experiment concerns melanoma cell lines. Put plainly: MHC class I expression across the panel of eight melanoma cell lines. Format: cell-based, human. The following applies: IFNg titration, 72-hour treatment, FIGS. 1 and 2 (A375, SKMEL-2). As for the experimental part: The goal of this study was to measure the effects of binimetinib on cell surface MHC class I expression in various melanoma cell lines. In this study, eight melanoma cell lines were evaluated: MEL-JUSO (NRAS Q61L mutation), IPC-298 (NRAS Q61L mutation), A375 (BRAF V600E, homozygous mutation), HS936.T (NRAS Q61K mutation and BRAF N581K mutation), MM485 (NRAS Q61R mutation), SK-MEL-2 (NRAS Q61R mutation), MM415 (NRAS Q61L mutation), Malme-3M (BRAF V600E, heterozygous mutation). The cells lines were seeded into flat bottom 96-well tissue culture plates at a density of 5000 cells per well and allowed to adhere overnight. The following day cells were treated with vehicle control (0.25% DMSO) or varying dilutions of Binimetinib (0.7 nM-25000 nM) for 1 hour. Cells were then treated with vehicle control or 100 ng/ml IFNgamma (R&D systems) for 72 hours. Cells were washed, trypsinized, and stained with Alexa Fluor® 647 anti-human HLA-A,B,C antibody (W6/32, eBioscience) and analyzed on a BD FACSCanto II flow cytometer. An IFNg titration and time course were performed for assay optimization. Maximal induction of MHC class I expression was seen ˜100 ng/mL of IFNγ (see, e.g., FIGS. 1 and 2).

As to “IFNγ: IFNgamma (R&D systems) used to induce MHC class I expression”, the “IFNγ concentration giving maximal induction of MHC class I expression” value was approximately 100 ng/mL.

Values taken from patent publication US20200368205A1, “METHODS AND COMBINATION THERAPY TO TREAT CANCER” (ARRAY BIOPHARMA INC., priority 2018, published 2020).
